Reference: US20070134202A1, “Cancer gene therapeutic drug” (priority 2003, published 2007)

Legend:
Assay type in all cases: cell-based
[1] = test system: Ovarian cancer cells HEY; experiment: Influence of Fe and ALA on the proliferation inhibitory effect of adenovirus AdE3-1A1.3B (FIG. 15-17)
Experimental: Ovarian cancer cells HEY were cultured in 12-well plate at a rate of 10,000 cells/well and FeSO4 was added at a concentration of 50 μg/ml, 5 μg/ml, 0.5 μg/ml or 0 μg/ml on the following day and the cytolysis type adenovirus AdE3-1A1.3B was added to all wells. The proliferation inhibitory effect of the adenovirus was evaluated by IC50 after five days.
(§1) Next, the ovarian cancer cell line HEY was cultured in a 12-well plate at a rate of 10,000 cells/well and 5-aminolevulinic acid (ALA) was added at a concentration of 50 μg/ml, 5 μg/ml, 0.5 μg/ml or 0 μg/ml on the following day and the cytolysis type adenovirus AdE3-1A1.3B was added to all wells. The proliferation inhibitory effect of the adenovirus was evaluated by IC50 after five days.
as §1, with “Furthermore,” for “Next,”, “FeSO4” for “5-aminolevulinic acid (ALA)”, “day. In addition,” for “day and”, “AdE3-1A1.3B and 50 μg/ml of 5-aminolevulinic acid (ALA) were added to each well. Only the adenovirus” for “AdE3-1A1.3B”, “a control.” for “all wells.”

[2] = test system: cancer cells; experiment: β-gal assay of adenovirus infectivity
Source text: (§2) That is, ALA and Fe can enhance antitumor effect, because they can increase the infectivity of adenovirus to cancer cells and the amount of virus production within the cells.

[3] = test system: cancer cells; experiment: PFU assay of adenovirus production
Source text: as §2

Compound | proliferation inhibitory effect to that of only adenovirus administration ([1]; 50 μg/ml of ALA and AdE3-1A1.3B, IC50 (vp/cell) after five days) | infectivity of adenovirus [2] | amount of adenovirus production [3] | proliferation inhibitory effect to that of only adenovirus administration ([1]; 0.5 μg/ml of FeSO4, 50 μg/ml of ALA and AdE3-1A1.3B, after five days) | proliferation inhibitory effect to that of only adenovirus administration ([1]; 5 μg/ml of FeSO4, 50 μg/ml of ALA and AdE3-1A1.3B, after five days) | proliferation inhibitory effect to that of only adenovirus administration ([1]; 5 μg/ml of FeSO4 and AdE3-1A1.3B, IC50 (vp/cell) after five days) | proliferation inhibitory effect to that of only adenovirus administration ([1]; 50 μg/ml of FeSO4, 50 μg/ml of ALA and AdE3-1A1.3B, after five days) | proliferation inhibitory effect to that of only adenovirus administration ([1]; 50 μg/ml of FeSO4 and AdE3-1A1.3B, IC50 (vp/cell) after five days)
NCC(=O)CCC(=O)O [ALA, 5-aminolevulinic acid, reference compound] | about 100 fold | increased infectivity of adenovirus | increased amount of adenovirus production | – | – | – | – | –
[Fe] [Fe] | – | increased infectivity of adenovirus | increased amount of adenovirus production | – | – | – | – | –
ferrous sulfate [FeSO4] | – | – | – | about 200 fold | about 700 fold | about 8 fold | about 1,000 fold | about 20 fold
